Test results published in patent publication US10500222B2, “Compositions and methods relating to treatment of infection” (Wayne State University, priority 2015, dated 2019).
≈ marks a conversion by molar mass, not a printed value. Entries after “also recorded” stand apart in the source; their conditions may differ.

Legend:
[1] = tested on: P. aeruginosa KEI 1025 infected cornea; test: Ocular response to bacterial infection (clinical score, slit lamp), KEI 1025 keratitis; assay type: in vivo, C57BL/6 (B6) mice; conditions: for opacity, slit lamp photographs / clinical scores: vs PBS
From the text: (§1) P. aeruginosa strains, KEI 1025, a non-cytotoxic clinical isolate strain expressing exoT and exoS, and not expressing exoU, described in Estrellas P S, Jr., et al., Curr Eye Res. 2000; 20:157-165 (obtained from Kresge Eye Institute, Detroit, Mich.), and a cytotoxic strain, 19660, expressing exoU, described in Finck-Barbancon V, et al., Mol Microbiol. 1997; 25:547-557; and Fleiszig S M, et al., Infect Immun. 1997; 65:579-586 (obtained from American Type Culture Collection, ATCC, Manassas, Va.), were grown in peptone tryptic soy broth (PTSB) medium in a rotary shaker water bath at 37° C. and 150 rpm for 18 h to an optical density (measured at 540 nm) between 1.3-1.8. Bacterial cultures were pelleted by centrifugation at 5,500 g for 10 min. Pellets were washed once with sterile saline, re-centrifuged, re-suspended and diluted in sterile saline. Anesthetized (using anhydrous ethyl ether) mice were placed beneath a stereoscopic microscope at 40× magnification. The left cornea was scarified with three 1-mm incisions using a sterile 25^5/8 gauge needle. The wounded corneal surface was topically treated with 5 μl containing 1×10^7 CFU/μl (KEI 1025) or 1×10^6 CFU/μl (ATCC strain 19660) of the P. aeruginosa suspension.
(§2) An established corneal disease grading scale, described in detail in Hazlett L D, et al., Invest Ophthalmol Vis Sci. 1987; 28:1978-1985, was used to assign a clinical score value to each infected eye at 1, 3 and 5 days post infection (p.i.). Clinical scores were designated as: 0=clear or slight opacity, partially or fully covering the pupil; +1=slight opacity, fully covering the anterior segment; +2=dense opacity, partially or fully covering the pupil; +3=dense opacity, covering the entire anterior segment; and +4=corneal perforation or phthisis. Clinical scores were used to statistically compare disease severity and were accompanied by photographs using a slit lamp (5 days p.i.) to confirm and illustrate the response.
(§3) The left eyes of B6 mice (n=5/group/time) were injected with 5 μl of 2 μg/μl glycyrrhizin (GLY) (Sigma-Aldrich, St. Louis, Mo.) or PBS (control) subconjunctivally, one day before infection. Similar treatment was done using carbenoxolone (CBX) (Sigma-Aldrich, St. Louis, Mo.). All mice were injected intraperitoneally (IP) at 1 and 3 days p.i. with 100 μl of GLY (2 μg/μl) or CBX (1 μg/μl). PBS served as control for all these experiments. In a separate similar experiment mice were treated one day before infection with GLY subconjunctivally and injected intraperitoneally (i.p.) with GLY plus recombinant (r) HMGB1 (1 μg/100 μl) or GLY plus PBS. IP injections were similarly given at 1 and 3 days p.i. In an additional experiment, KEI 1025 infected B6 mice were treated with 5 μl of 2 μg/μl GLY subconjunctivally at 6 hours p.i. and injected intraperitoneally at 1 and 3 days p.i. with 100 μl of GLY (2 μg/μl).

[2] = tested on: P. aeruginosa ATCC strain 19660 infected cornea; test: Ocular response to bacterial infection (clinical score, slit lamp), strain 19660 keratitis; assay type: in vivo, C57BL/6 (B6) mice; conditions: pretreatment subconj. + IP, vs PBS
From the text: as §1, §2
as §3, with “In an additional experiment, KEI 1025 infected B6 mice were treated with 5 μl of 2 μg/μl GLY subconjunctivally at 6 hours p.i. and injected intraperitoneally at 1 and 3 days p.i. with 100 μl of GLY (2 μg/μl).” left out

[3] = tested on: neutrophils in the cornea, P. aeruginosa ATCC strain 19660; test: Myeloperoxidase (MPO) assay, strain 19660 infection; assay type: in vivo, C57BL/6 (B6) mice; conditions: vs PBS
Experimental: as §3
This assay was used to quantitate neutrophils in the cornea of GLY and PBS treated mice (n=5/group/time) infected with KEI 1025 or ATCC strain 19660. Individual corneas were removed at 3 and 5 days p.i. and homogenized in 1.0 ml of 50 mM phosphate buffer (pH 6.0) containing 0.5% HTAB. […] The change in absorbency was monitored at 460 nm for 5 min at 30 sec intervals. The slope of the line was determined for each sample and used to calculate units of MPO/cornea. […]

P. aeruginosa KEI 1025 = test: Bacterial growth and Minimum Inhibitory Concentration (MIC), strain KEI 1025; assay type: cell-based, Pseudomonas aeruginosa; conditions: for absorbance values of bacterial cultures: vs growth control
[4] = subconj. 1 day before infection + IP 1 and 3 days p.i., 5 days p.i.

CC1(C)[C@@H](O[C@H]2O[C@H](C(=O)O)[C@@H](O)[C@H](O)[C@H]2O[C@@H]2O[C@H](C(=O)O)[C@@H](O)[C@H](O)[C@H]2O)CC[C@]2(C)[C@H]3C(=O)C=C4[C@@H]5C[C@@](C)(C(=O)O)CC[C@]5(C)CC[C@@]4(C)[C@]3(C)CC[C@@H]12 [GLY, glycyrrhizin] was tested, and the “opacity, slit lamp photographs” value ([1]; post treatment: subconj. 6 hours p.i. + IP 1 and 3 days p.i.) was “decreased opacity”, the clinical scores ([1]; post treatment: subconj. 6 hours p.i. + IP 1 and 3 days p.i., 1 day p.i.) was “seen only at 3 and 5 days p.i” and the clinical scores ([1]; post treatment: subconj. 6 hours p.i. + IP 1 and 3 days p.i., 3 days p.i.) was “Reduced clinical scores”. The clinical scores ([1]; post treatment: subconj. 6 hours p.i. + IP 1 and 3 days p.i., 5 days p.i.) was “Reduced clinical scores”, the “infiltrate, slit lamp photographs” value ([1]; pretreatment, 5 days p.i., GLY compared with CBX treated eyes) was “less infiltrate” and the clinical scores ([1]; subconj. 1 day before infection + IP 1 and 3 days p.i., 1 day p.i.) was “significantly less corneal disease with lower clinical scores; also recorded: reduced significantly”. For the same compound, the clinical scores ([1]; subconj. 1 day before infection + IP 1 and 3 days p.i., 3 days p.i.) was “significantly less corneal disease with lower clinical scores; also recorded: reduced significantly”, the clinical scores [1, 4] was “significantly less corneal disease with lower clinical scores; also recorded: reduced significantly” and the “opacity, slit lamp photographs” value [1, 4] was “reduced opacity”. For the same compound, the clinical scores ([2]; 1 day p.i.) was “not at 1 day p.i”, the clinical scores ([2]; 3 days p.i.) was “reduced clinical scores that were significant” and the clinical scores ([2]; 5 days p.i.) was “reduced clinical scores that were significant”. For the same compound, the “disease/opacity, slit lamp photographs” value ([2]; 5 days p.i.) was “less disease, reduced opacity”, the “neutrophils in the cornea (MPO assay)” value ([3]; 3 days p.i.) was “significant decrease in neutrophils” and the “neutrophils in the cornea (MPO assay)” value ([3]; 5 days p.i.) was “significant decrease in neutrophils”. For the same compound, the MIC50 (P. aeruginosa KEI 1025; Pseudomonas aeruginosa, KEI1025, strain KEI 1025, 50% decrease in absorbance at 540 nm, 37° C., 18 h) was 20 mg/mL (≈ 24.3 mM), the MIC90 (P. aeruginosa KEI 1025; Pseudomonas aeruginosa, KEI1025, strain KEI 1025, 90% decrease in absorbance at 540 nm, 37° C., 18 h) was 40 mg/mL (≈ 48.6 mM) and the “Minimum Inhibitory Concentration 50 (MIC50)” value (P. aeruginosa KEI 1025; non-cytotoxic strains) was 20 milligrams/milliliter. The “absorbance values of bacterial cultures” value (P. aeruginosa KEI 1025; strain KEI 1025, grown with 20 mg/ml GLY) was “significantly reduced” and the “absorbance values of bacterial cultures” value (P. aeruginosa KEI 1025; strain KEI 1025, grown with 40 mg/ml GLY) was “significantly reduced”.
